Source: ChEMBL document CHEMBL1201862, “PubChem BioAssay data set” (2004)
Each block holds one molecule with its values, some of them ahead of it. The source made the active and inactive calls.

Columns and labels:
[1] = target: Induced myeloid leukemia cell differentiation protein Mcl-1 (Homo sapiens, UniProt Q07820); assay type: functional
[2] = target: T1, Microphthalmia-associated transcription factor (Homo sapiens, UniProt O75030); test: TRPM1 promoter luciferase signal decrease, dose response, MITF inhibitor project, cell-based, SK-MEL-5, cherry-picked, set 3 (AID 493073); assay type: functional
T1 sequence (O75030 whole entry): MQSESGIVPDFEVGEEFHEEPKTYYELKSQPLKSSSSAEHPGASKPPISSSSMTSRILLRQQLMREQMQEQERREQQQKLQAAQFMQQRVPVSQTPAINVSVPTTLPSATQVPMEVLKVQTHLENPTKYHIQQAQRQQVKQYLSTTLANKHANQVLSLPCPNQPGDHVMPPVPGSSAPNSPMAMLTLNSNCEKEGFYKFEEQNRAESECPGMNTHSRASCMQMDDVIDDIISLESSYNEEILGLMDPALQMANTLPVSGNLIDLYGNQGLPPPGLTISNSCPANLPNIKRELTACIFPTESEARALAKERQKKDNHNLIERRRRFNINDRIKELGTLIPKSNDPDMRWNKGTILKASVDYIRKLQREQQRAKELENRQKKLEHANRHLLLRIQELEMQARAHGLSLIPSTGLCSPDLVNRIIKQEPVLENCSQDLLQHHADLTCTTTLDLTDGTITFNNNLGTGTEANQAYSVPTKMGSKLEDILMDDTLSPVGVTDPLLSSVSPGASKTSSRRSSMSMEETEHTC

[3] = MALME3 melanoma cell viability reduction, dose response, orthogonal assay for MITF inhibitor project, CellTiter-Glo luminescence, dry powder, set 5 (AID 651584); assay type: functional, cell-based; settings: MALME-3
[4] = target: Death-associated protein kinase 3 (Homo sapiens, UniProt O43293); assay type: functional;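 also: measured as one member of a kinome-wide profiling panel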
Chain of Death-associated protein kinase 3 (O43293 whole entry): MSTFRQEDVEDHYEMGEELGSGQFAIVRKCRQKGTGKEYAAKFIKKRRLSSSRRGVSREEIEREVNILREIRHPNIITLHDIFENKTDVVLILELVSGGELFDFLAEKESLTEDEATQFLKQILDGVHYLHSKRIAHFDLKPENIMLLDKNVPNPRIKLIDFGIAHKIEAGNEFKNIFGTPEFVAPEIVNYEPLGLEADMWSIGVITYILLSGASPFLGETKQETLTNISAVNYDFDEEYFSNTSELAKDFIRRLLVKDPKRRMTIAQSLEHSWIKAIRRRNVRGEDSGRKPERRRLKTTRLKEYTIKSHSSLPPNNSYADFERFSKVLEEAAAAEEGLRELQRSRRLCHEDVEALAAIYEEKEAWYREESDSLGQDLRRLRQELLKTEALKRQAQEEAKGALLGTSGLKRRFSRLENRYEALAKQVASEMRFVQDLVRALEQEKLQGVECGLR

[5] = target: Serine/threonine-protein kinase pim-1 (Homo sapiens, UniProt P11309); assay type: functional
[6] = target: Serine/threonine-protein kinase 17A (Homo sapiens, UniProt Q9UEE5); assay type: functional
[7] = target: Homeodomain-interacting protein kinase 2 (Homo sapiens, UniProt Q9H2X6); assay type: functional;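 also: measured within a kinome-wide kinase profiling panel, HIPK2 being one panel member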
Chain of Homeodomain-interacting protein kinase 2 (Q9H2X6 whole entry): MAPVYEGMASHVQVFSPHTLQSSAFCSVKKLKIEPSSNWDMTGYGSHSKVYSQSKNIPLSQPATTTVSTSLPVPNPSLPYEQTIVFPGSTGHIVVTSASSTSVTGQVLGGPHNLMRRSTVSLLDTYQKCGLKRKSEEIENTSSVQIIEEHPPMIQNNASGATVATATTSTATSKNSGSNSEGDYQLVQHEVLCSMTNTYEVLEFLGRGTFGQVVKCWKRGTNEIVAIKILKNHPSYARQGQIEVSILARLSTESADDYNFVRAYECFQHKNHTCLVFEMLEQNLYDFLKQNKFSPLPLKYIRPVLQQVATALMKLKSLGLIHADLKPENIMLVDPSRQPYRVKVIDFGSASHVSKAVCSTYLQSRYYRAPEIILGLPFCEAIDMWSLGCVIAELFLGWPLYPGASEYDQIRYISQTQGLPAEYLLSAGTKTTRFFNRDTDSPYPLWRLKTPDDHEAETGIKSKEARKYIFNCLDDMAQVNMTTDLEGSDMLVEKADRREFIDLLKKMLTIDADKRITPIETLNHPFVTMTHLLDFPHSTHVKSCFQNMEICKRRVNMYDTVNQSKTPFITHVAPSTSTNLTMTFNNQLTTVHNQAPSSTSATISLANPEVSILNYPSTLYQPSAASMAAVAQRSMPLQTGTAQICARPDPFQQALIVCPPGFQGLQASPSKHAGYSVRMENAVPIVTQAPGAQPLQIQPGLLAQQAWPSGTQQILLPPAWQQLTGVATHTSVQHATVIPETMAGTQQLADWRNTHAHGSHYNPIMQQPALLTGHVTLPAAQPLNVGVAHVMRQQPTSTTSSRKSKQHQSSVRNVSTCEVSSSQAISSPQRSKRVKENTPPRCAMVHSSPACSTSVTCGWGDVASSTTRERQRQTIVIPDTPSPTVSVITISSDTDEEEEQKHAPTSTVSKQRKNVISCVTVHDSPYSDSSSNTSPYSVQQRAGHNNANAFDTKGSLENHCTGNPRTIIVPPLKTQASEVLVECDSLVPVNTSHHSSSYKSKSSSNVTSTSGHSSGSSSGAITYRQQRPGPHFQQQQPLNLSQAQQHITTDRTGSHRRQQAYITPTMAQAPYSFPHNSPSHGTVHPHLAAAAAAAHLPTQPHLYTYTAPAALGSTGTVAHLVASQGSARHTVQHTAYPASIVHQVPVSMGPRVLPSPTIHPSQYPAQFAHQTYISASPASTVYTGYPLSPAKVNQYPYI

[8] = target: Protein kinase C zeta type (Homo sapiens, UniProt Q05513); assay type: functional;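 also: measured as one member of a broad kinase profiling panel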
Chain of Protein kinase C zeta type (Q05513 whole entry): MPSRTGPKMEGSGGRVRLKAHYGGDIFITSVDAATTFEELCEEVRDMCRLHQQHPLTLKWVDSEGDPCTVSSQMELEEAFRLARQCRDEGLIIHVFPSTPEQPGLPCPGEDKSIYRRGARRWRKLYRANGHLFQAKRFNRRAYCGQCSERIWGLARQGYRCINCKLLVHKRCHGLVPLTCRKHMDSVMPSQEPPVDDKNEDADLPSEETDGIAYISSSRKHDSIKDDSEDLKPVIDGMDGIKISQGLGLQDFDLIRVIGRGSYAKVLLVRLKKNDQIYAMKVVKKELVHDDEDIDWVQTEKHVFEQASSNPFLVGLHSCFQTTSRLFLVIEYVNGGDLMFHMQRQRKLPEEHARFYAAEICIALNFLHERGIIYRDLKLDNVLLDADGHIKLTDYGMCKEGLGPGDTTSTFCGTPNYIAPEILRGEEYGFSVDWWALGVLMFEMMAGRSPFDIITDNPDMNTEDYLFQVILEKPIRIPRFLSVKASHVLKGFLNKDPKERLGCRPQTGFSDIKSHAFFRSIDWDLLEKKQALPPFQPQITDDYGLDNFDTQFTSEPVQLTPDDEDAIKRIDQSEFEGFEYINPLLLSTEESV

[9] = target: 3-phosphoinositide-dependent protein kinase 1 (Homo sapiens, UniProt O15530); assay type: functional;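 also: value comes from the Navigating the Kinome panel, PDPK1 member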
[10] = target: Tyrosine-protein kinase Fyn (Homo sapiens, UniProt P06241); assay type: functional
[11] = target: Focal adhesion kinase 1 (Homo sapiens, UniProt Q05397); assay type: functional;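 also: measured as one member of a kinome panel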
[12] = target: Non-receptor tyrosine-protein kinase TYK2 (Homo sapiens, UniProt P29597); assay type: functional
[13] = target: Protein kinase C iota type (Homo sapiens, UniProt P41743); assay type: functional;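 also: measured within a kinome-wide kinase panel, PRKCI as panel member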
[14] = target: Tyrosine-protein kinase receptor TYRO3 (Homo sapiens, UniProt Q06418); assay type: functional;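 also: TYRO3 value obtained as one member of a kinome-wide profiling panel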
Chain of Tyrosine-protein kinase receptor TYRO3 (Q06418 whole entry): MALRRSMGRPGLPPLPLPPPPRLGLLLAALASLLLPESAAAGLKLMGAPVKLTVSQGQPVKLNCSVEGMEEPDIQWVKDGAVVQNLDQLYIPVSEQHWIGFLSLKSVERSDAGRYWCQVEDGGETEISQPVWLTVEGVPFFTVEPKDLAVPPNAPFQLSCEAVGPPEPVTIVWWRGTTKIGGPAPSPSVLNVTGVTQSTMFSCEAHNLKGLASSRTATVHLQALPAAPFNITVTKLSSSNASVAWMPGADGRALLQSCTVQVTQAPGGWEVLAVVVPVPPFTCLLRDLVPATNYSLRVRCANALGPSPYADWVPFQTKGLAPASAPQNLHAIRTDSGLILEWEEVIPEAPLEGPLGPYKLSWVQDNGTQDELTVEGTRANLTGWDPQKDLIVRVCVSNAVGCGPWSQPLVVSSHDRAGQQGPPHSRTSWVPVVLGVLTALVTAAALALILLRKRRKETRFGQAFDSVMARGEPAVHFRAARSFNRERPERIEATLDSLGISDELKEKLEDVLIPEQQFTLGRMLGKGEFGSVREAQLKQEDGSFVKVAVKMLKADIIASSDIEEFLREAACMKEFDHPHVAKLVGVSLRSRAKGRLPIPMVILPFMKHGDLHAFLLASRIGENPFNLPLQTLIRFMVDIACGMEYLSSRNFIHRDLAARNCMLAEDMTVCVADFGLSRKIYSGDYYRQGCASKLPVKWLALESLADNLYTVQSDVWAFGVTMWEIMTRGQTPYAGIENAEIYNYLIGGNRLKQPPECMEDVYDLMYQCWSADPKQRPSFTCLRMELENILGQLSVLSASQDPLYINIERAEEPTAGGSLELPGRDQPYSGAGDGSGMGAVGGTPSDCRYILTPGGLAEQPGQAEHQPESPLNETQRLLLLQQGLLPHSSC

[15] = target: Maternal embryonic leucine zipper kinase (Homo sapiens, UniProt Q14680); assay type: functional
Chain of Maternal embryonic leucine zipper kinase (Q14680 whole entry): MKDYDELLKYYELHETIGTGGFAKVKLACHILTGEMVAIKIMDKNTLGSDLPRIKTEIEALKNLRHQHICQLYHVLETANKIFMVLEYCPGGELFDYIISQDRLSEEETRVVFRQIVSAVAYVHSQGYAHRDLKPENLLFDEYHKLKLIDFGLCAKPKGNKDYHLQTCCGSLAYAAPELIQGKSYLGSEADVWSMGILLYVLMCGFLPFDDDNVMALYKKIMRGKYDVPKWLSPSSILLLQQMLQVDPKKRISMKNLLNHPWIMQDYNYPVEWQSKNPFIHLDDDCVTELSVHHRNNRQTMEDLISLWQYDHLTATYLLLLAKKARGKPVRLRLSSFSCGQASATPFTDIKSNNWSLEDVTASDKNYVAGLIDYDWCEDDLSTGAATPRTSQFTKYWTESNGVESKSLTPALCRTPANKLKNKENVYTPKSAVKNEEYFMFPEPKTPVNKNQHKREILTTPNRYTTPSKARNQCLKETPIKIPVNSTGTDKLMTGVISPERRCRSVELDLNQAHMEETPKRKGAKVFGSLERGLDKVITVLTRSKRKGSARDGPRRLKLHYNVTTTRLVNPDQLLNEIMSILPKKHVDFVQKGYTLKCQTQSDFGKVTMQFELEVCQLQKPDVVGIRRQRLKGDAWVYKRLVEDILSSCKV

[16] = target: Receptor tyrosine-protein kinase erbB-4 (Homo sapiens, UniProt Q15303); assay type: functional;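 also: ERBB4 member of a kinome-wide kinase profiling panel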
Chain of Receptor tyrosine-protein kinase erbB-4 (Q15303 whole entry): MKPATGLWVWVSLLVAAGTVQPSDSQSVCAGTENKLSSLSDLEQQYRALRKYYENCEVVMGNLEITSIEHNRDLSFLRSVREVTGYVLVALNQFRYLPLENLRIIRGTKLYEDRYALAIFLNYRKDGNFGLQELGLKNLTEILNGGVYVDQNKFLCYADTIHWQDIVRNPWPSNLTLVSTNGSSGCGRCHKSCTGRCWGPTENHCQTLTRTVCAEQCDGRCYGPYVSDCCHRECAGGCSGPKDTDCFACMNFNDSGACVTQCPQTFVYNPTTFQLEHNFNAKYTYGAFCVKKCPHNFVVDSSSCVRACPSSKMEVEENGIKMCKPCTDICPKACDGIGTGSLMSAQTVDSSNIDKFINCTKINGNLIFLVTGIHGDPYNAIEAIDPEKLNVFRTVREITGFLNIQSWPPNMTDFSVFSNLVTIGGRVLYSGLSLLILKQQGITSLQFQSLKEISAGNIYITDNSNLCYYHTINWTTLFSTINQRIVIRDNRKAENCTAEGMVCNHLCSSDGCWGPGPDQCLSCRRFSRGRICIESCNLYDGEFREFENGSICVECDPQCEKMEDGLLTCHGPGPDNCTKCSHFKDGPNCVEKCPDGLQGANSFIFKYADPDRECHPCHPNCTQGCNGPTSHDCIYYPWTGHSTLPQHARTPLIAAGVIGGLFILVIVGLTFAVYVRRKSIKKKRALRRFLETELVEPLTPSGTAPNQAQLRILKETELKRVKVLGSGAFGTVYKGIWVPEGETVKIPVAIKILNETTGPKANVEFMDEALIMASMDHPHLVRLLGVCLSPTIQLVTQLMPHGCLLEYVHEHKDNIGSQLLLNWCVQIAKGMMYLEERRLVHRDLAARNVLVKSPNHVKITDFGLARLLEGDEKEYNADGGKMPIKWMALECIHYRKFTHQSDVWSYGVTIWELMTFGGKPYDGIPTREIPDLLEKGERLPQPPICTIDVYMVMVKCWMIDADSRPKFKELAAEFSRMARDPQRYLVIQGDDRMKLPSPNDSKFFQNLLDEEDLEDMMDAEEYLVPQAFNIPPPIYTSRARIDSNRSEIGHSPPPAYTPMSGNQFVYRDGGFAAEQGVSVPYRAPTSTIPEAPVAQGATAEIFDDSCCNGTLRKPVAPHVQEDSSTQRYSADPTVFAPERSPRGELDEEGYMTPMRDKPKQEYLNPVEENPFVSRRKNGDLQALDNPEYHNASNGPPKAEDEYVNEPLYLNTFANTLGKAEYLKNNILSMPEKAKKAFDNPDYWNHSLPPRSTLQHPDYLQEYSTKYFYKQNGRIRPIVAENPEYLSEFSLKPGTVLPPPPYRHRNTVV

[17] = target: RAC-alpha serine/threonine-protein kinase (Homo sapiens, UniProt P31749); assay type: functional;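 also: AKT1 affinity measured as one member of a kinome-wide kinase profiling panel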

Structure (SMILES): CS(=O)(=O)c1ccc2c(c1)SC1=NC(=O)/C(=C/c3ccc(O)c(O)c3)C(=N)N12
IC50 [1]: 5.26 µM (active)

Structure (SMILES): C=CCNC1=C(Cl)C(=O)c2ccccc2C1=O
AC50 [2]: 4.06 µM (active)
AC50 [3]: 9.99 µM (active)

Ki [5]: > 5.01 µM (inactive)
Ki [6]: 0.0501 µM (active)
Ki [7]: 0.0251 µM (active)
Ki [8]: > 7.94 µM (inactive)
Ki [9]: 1 µM (active)
Ki [10]: 0.251 µM (active)
Ki [11]: > 6.31 µM (inactive)
Ki [12]: 0.02 µM (active)
Ki [13]: 3.98 µM (active)
Ki [14]: > 2 µM (inactive)
Ki [15]: 0.398 µM (active)
Ki [16]: > 3.98 µM (inactive)
Ki [17]: 6.31 µM (active)
Structure (SMILES): COc1ccc(C(=O)Nc2n[nH]c3ccc(-c4cn(Cc5ccccc5)nn4)cc23)cc1OC
Ki [4]: 0.0316 µM (active)
